From US20240207414A1, “DISULFIDE-BASED PRODRUG COMPOUND” (Ludwig-Maximilians-Universitat Munchen, priority 2021, published 2024)

Tests used:
[1] = test system: HeLa cells; test: In vitro cell viability assay P10 (resazurin); assay type: cell-based; conditions: Homo sapiens, 48 h, read-out: IC50 antiproliferation / cell viability
Method: Assay Conditions: Cells were cultured under standard conditions (Gao, L. et al. Cell Chemical Biology 2021, 28, 1-14. https://doi.org/10.1016/j.chembiol.2020.11.007), left to adhere for 24 h, then P10 was added from DMSO stock solution and adjusted to 1% vol DMSO. Cells were incubated under standard conditions for 48 h, then 0.20 volume equivalents of a solution of resazurin in PBS (0.15 mg/mL) were added and incubated for 3 hours, then fluorescence (ex 544 nm, em 590 nm) was detected on a fluorescence platereader. Cell viability (%) is calculated relative to a control experiment with no P10 added, from the fluorescence values.

[2] = test system: 4T1 Balb/c mouse breast cancer cell line, orthotopic tumor; test: In vivo mouse tumor model assay P10
Excerpt: Assay Conditions and Data Representation: Immunocompetent wildtype Balb/c mice were inoculated with 4T1 Balb/c mouse breast cancer cell line orthotopically in the mammary fat pad (2×10^5 cells) and tumor growth was monitored by caliper measurement. The day when all tumors had reached ca. 150 mm^3 was defined as Day 0; on this day the mice were randomised by tumor size into groups of minimum size 5 animals (mean tumor size ca. 200 mm^3), and treated. Treatments were chosen from 0.9% NaCl (“untreated”), the vascular disrupting agent combretastatin A-4 phosphate (CA4P) at 30 mg/kg administered in 100 μL NaCl (“VDA”), compound of the invention P10 at 4 mg/kg administered in 30 μL DMSO (“P10”), or a combination regime involving treatment with VDA and then 6 hours later with P10 (“VDA+P10”). All treatments were administered intraperitoneally (i.p.). CA4P was re-applied to groups “VDA” and […] once at day 7; no P10 treatment was re-applied to either “P10” or “VDA+P10” groups. Tumor volumes were measured as assay readout.

[3] = test system: A549 cells; test: Cellular reduction assay P12-P16 (FIG. 6); assay type: cell-based, human; conditions: 10 μM or 40 μM, 1% vol DMSO, cells under ordinary conditions
Method: Assay Conditions: A549 cells were cultured under standard conditions (Gao, L. et al. Cell Chemical Biology 2021, 28, 1-14. https://doi.org/10.1016/j.chembiol.2020.11.007), left to adhere for 24 h, then compounds were added to 10 μM or 40 μM with 1% vol DMSO. Fluorescence timecourse measurements were acquired as in the chemoreductant assay, with all conditions in triplicates.
Experimental Results and Discussion: F(t) is the raw fluorescence intensity signal increase in arbitrary units with the same detection settings the probes releasing the same cargo. […] This trend is irrespective of the applied concentration in cells and cellular increase is constant over time. This indicates, that P13-P16 are activated more selectively by specific enzymatic cascades (as e.g. Trx/TrxR), whereas P12 may be activated more unspecifically. Thus, compounds of the invention either have the possibility of being useful by giving selective cargo release in pathologically growing cells or cells under abnormal conditions (P13-P16), or offer novel opportunities of cellular delivery of appended cargoes with optimal response kinetics (P12).

SMILES	IC50 [1] [µM]	tumor growth (tumor volume), combination with VDA ([2]; CA4P (VDA) 30 mg/kg i.p., then 6 hours later P10 4 mg/kg i.p.)	primary tumor progression (tumor volume) ([2]; single treatment 4 mg/kg i.p., Balb/c mice, 4T1 tumor)	cargo release / activation inside cells (raw fluorescence F(t)) [3]
O=C(c1cc2cc(OCCCN3CCC3)ccc2[nH]1)N1C[C@@H](CCl)c2c1cc(OC(=O)N1CCC[C@@H]3CSSC[C@@H]31)c1ccccc21 (racemic) [Compound P10, (S)-3-(5-(3-(azetidin-1-yl)propoxy)-1H-indole-2-carbonyl)-1-(chloromethyl)-2,3-dihydro-1H-benzo[e]indol-5-yl (cis)-hexahydro-[1,2]dithiino[4,5-b]pyridine-1(2H)-carboxylate]	~0.2	still more significantly slows tumor growth	significantly slows primary tumor progression	
COc1ccc2c(c1)Oc1cc(OC(=O)N3CCN[C@@H]4CSSC[C@H]43)ccc1C21OC(=O)c2ccccc21 (mixture of isomers) [Compound P12, 3′-methoxy-3-oxo-3H-spiro[isobenzofuran-1,9′-xanthen]-6′-yl-trans-hexahydro-[1,2]dithiino[4,5-b]pyrazine-1(2H)-carboxylate]				substantially releases its cargo inside cells cultured under ordinary conditions
